Assay [1] deals with A549 cells. In words: Proliferation of A549 cells (cell counts after 72 h / 3 days). The class given is cell-based, human. The following applies: 500 μM added to culture medium, cells counted after 3 days (72 h). On the procedure: FIG. 1. Effect of L- and D-Cysteine, each tested at 500 microM, on the proliferation of A549 cells. Cells were counted 3 days after addition of L- or D-Cysteine. (CM=culture medium)
(§1) A549 lung tumor cells (FIG. 5A) or BEAS-2B normal bronchial epithelial cells (FIG. 5B) were cultured in complete media (CM) in the absence or presence of 500 μM D-cysteine (D-Cys). Cell numbers were analyzed after 72 h and after splitting of cells (p1). Cell numbers are expressed as % of cells cultured in the absence of D-cysteine. **** P<0.0001.
(§2) We therefore decided to test whether the D-cysteine-mediated inhibition of OCR could affect cell growth in a regular normal medium complemented with fetal calf serum. Most culture media used for cell culture contain 300 μM L-cystine. […] Importantly, some cancer cell lines, including HeLa cells (FIG. 4A), the MPM cell line H2052/484 (FIG. 4B), and osteosarcoma cell line 143B (not shown), were insensitive both in 2D cultures or in colony formation assays. The decrease in numbers of cells seen after 72 h exposure to D-cysteine was due to decreased cell proliferation. […] Importantly, in contrast to the results with cancer cells, normal human bronchial epithelial BEAS-2B cells were resistant to D-cysteine exposure even at very high concentration (FIG. 5B).

In assay [2] the test system is A549 lung cancer cells. Kind of assay: Proliferation of A549 cells with D-cysteine and 3-MST inhibitor HMPSNE. The class given is cell-based, human. The following applies: D-cysteine 100 μM and/or HMPSNE. On the procedure:
(§3) A549 lung tumor cells (FIG. 10A) or MDA-MB-231 breast tumor cells (FIG. 10B) were cultured in complete media (CM) in the absence or presence of 100 μM D-cysteine (D-Cys), with (grey bars) or without (black bars) HMPSNE, a cell-membrane permeable inhibitor of 3-MST. Cell numbers were counted after 72 hours. * P<0.05, ** P<0.01, *** P<0.001, **** P<0.0001.
(§4) Furthermore, as mentioned above, it exerts toxic effects via iron chelation. Therefore, to survive D cysteine, cells need to increase its catabolism. There are two main pathways for cysteine catabolism: one is via its enzymatic breakdown to produce hydrogen sulfur and organic intermediates that will serve as carbon sources, and the second is via oxidative metabolism through cysteine dioxygenase 48. Inhibition of cysteine catabolism can be obtained with inhibitors of the key enzymes participating in this pathway. We have used a commercially available inhibitor of 3-MST, HMPSNE 49 to inhibit the enzyme in A549 lung cancer cells and in MDA-MB-231 breast cancer cells in the presence or absence of D cysteine.

Assay [3] relates to MDA-MB-231 breast cancer cells. Kind of assay: Proliferation of MDA-MB-231 cells with D-cysteine and 3-MST inhibitor HMPSNE. In kind it is cell-based. The following applies: D-cysteine 100 μM and/or HMPSNE. On the procedure:
as §3, §4

Assay [4] has as its system mitochondrial respiration. In words: Oxygen consumption rate of cells in poor medium with single amino acids. The following applies: cells in poor medium containing only glucose, each amino acid tested separately; data not shown. The class given is cell-based.
Assay [5] deals with A549 cells. In words: Cell death of A549 cells exposed to D-cysteine (passage p1, caspase 3 Western blotting, zVAD-fmk, CRISPR screen selection). In kind it is cell-based, human. The following applies: added to D-cysteine-exposed cells; data not shown. The protocol: as §1, §2
For these experiments a pooled lentiviral CRISPR library (Addgene) targeting 19114 human genes was used to infect A549 cells, stably expressing the Cas9 nuclease. Cells were then cultured in the presence of 0.5 mM D-cysteine, a concentration sufficient to induce A549 cell death. After 2-3 weeks, the surviving clones were recovered and the sgRNAs were amplified by PCR and sequenced using next-generation sequencing (NGS) to identify the targeted genes (FIG. 6).

The structures appear in SMILES notation. “Also recorded” adds a separate entry of the source. Peptide text beside a SMILES is read from it. * marks the point of attachment. Cbz = O=C(OCc1ccccc1)*; CH2F = FC*

On to `N[C@H](CSSC[C@@H](N)C(=O)O)C(=O)O` [D-cystine], for which, in assay [1], the “proliferation of A549 cells” value is “inhibited the proliferation”.
Consider `Cc1cc(=O)[nH]c(SCC(=O)c2cccc3ccccc23)n1` [HMPSNE], for which, in assay [2], the “cell proliferation (cell numbers after 72 hours), A549” value is “significant impact; also recorded: potentiates the anti-proliferative effect of D-cysteine”. In addition, the “cell proliferation (cell numbers after 72 hours), MDA-MB-231” value in assay [3] is recorded as “significant impact; also recorded: potentiates the anti-proliferative effect of D-cysteine”.
For `N[C@@H](CS)C(=O)O` [L-cysteine, reference compound], the entries for the “proliferation of A549 cells” value in assay [1] and in assay [1] (listed as L form of cysteine) were “had no effect” and “no adverse effect”, respectively. In assay [4], the “inhibitory effect on oxygen consumption rate (OCR)” value is recorded as “responsible for the observed effect”.
Turning to `COC(=O)C[C@H](NC(=O)[C@H](C)NC(=O)[C@@H](NC(=O)OCc1ccccc1)C(C)C)C(=O)CF` [zVAD-fmk, reference compound] (Cbz-Val-Ala-Asp(OMe)-CH2F), the “protection from D-cysteine-induced cell death by added pan-caspase inhibitor” value in assay [5] was “did not protect the cells”.

The record behind these values is patent publication US20240016772A1, “Compositions And Methods Comprising D-Cysteine Or A D-Derivative Thereof” (UNIVERSITE DE GENEVE, priority 2020, published 2024).
